Results published in patent US10980809B2, “Urea-substituted aromatic ring-linked dioxane-quinazoline and -linked dioxane-quinoline compounds, preparation method therefor and use thereof” (BEIJING SCITECH-MQ PHARMACEUTICALS LIMITED, priority 2017, dated 2021).

Legend:
[1] = target: VEGFR-2 kinase (Homo sapiens (Human), UniProt P35968); assay: Test of small molecule compounds for inhibiting the activity of VEGFR-2 kinase; type: biochemical; conditions: class symbols A-D
Description: Test of Small Molecule Compounds for Inhibiting the Activity of VEGFR-2 Kinase
The test was carried out as follows:
2. 2.5 μl of the gradient-diluted compounds was taken with a transfer pipette to a 384-well plate,
3. Addition of enzyme: 5 μl of 2×VEGFR-2 kinase was taken with a transfer pipette to the corresponding reaction well of the 384-well plate, which was mixed and pre-reacted at room temperature for 30 min,
5. Negative control: 2.5 μl/well 4× substrate/ATP Mix and 7.5 μl 1× Kinase Assay Buffer were added to the wells of the 384-well plate,
Positive control: 2.5 μl/well 4× substrate/ATP Mix, 2.5 μl/well 1× Kinase Assay Buffer containing 4% DMSO, and 5 μl/well 2×VEGFR-2 solution were added to the 384-well plate. The final concentration of DMSO in the reaction system is […],
6. The mixture was mixed well and then centrifuged and reacted at room temperature in dark for 60 min,
9. The 384-well plate was placed into the Envision plate reader and the signal was detected using the appropriate program,

[2] = target: C-RAF (Homo sapiens (Human), UniProt P04049); assay: Test of small molecule compounds for inhibiting the activity of C-RAF kinase (ADP-Glo)
Sequence of C-RAF (P04049 whole entry): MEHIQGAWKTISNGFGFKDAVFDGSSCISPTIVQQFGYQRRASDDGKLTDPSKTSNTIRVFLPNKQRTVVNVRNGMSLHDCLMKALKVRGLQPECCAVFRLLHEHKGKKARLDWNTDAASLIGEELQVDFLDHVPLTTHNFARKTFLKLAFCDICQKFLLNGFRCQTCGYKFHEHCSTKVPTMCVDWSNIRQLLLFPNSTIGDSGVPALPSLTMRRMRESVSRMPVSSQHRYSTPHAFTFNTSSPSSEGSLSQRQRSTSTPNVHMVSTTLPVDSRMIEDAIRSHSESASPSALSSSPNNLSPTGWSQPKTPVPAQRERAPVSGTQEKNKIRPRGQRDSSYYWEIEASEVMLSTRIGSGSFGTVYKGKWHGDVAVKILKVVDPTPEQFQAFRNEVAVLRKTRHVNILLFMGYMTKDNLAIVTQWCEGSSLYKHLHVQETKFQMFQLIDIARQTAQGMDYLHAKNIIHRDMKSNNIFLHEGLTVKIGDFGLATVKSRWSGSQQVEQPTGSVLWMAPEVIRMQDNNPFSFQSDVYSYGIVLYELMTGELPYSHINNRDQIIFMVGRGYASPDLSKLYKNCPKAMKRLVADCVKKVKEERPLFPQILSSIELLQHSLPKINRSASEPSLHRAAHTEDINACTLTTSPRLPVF
Description: (§1) Test of Small Molecule Compounds for Inhibiting the Activity of C-RAF and B-RAF Kinases
(§2) 1. Preparation of test compounds: according to the molecular weight of the compounds, an appropriate volume of DMSO was directly added to dissolve the test compounds. For storing the compound, the concentration of DMSO is 100%, and the final concentration of DMSO in the experimental system is 1%.
(§3) Enzyme: B-RAF: 0.1 ng/l (the final concentration in the reaction system); C-RAF: 0.1 ng/μl (the final concentration in the reaction system)
(§4) HPE: the reaction without enzyme (1% DMSO)
(§5) ZPE: the reaction with enzyme but without compound (1% DMSO)
(§6) a) 1 ul of 10-fold diluted compound or 10% DMSO was added to a 384-well assay plate,
(§7) b) 4 ul enzyme solution or assay buffer was added to the wells of the assay plate,
(§8) c) the plate was centrifuged at 1000 rpm for 1 minute to homogeneous,
(§9) d) 5 ul of ATP-substrate mixture was added to the wells of the assay plate,
(§10) e) the plate was shaked for mixing for 2 minutes,
(§11) f) the plate was incubated at 30° C. for 1 hour,
(§12) g) 10 ul of ADP-Glo reagent was added to the wells of the assay plate, and the plate was incubated for 40 minutes at 27° C.,
(§13) h) 20 ul of kinase assay solution was added to the wells of the plate, and the plate was incubated for 30 minutes at 27° C.,
(§14) i) the chemiluminescent signal was read with Envision.
(§15) The IC50 values of the positive control compound and the test compounds were calculated using the Prism software according to the variable slope of the curve.

[3] = target: B-RAF (Homo sapiens (Human), UniProt P15056); assay: Test of small molecule compounds for inhibiting the activity of B-RAF kinase (ADP-Glo)
Sequence of B-RAF (P15056 whole entry): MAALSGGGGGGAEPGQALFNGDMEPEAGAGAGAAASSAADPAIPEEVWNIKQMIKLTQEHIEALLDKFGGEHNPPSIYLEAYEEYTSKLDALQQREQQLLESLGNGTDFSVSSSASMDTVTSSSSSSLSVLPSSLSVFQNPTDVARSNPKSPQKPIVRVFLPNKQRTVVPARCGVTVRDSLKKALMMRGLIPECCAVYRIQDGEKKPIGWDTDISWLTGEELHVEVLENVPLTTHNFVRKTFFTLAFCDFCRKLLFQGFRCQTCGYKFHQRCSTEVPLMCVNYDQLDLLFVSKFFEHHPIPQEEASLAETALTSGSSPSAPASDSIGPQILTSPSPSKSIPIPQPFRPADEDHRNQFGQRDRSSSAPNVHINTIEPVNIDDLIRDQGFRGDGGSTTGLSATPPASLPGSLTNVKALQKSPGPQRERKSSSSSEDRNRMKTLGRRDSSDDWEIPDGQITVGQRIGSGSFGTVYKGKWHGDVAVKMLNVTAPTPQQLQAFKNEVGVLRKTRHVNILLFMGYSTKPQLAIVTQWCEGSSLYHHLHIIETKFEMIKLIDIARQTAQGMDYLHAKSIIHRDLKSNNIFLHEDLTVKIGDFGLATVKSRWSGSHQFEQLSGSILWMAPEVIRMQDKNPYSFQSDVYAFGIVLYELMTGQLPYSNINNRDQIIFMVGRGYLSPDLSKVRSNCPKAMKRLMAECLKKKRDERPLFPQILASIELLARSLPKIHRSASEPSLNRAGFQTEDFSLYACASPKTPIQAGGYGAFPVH
Description: as §1, §2, §3, §4, §5, §6, §7, §8, §9, §10, §11, §12, §13, §14, §15

Sequence of VEGFR-2 kinase (P35968 20-1356): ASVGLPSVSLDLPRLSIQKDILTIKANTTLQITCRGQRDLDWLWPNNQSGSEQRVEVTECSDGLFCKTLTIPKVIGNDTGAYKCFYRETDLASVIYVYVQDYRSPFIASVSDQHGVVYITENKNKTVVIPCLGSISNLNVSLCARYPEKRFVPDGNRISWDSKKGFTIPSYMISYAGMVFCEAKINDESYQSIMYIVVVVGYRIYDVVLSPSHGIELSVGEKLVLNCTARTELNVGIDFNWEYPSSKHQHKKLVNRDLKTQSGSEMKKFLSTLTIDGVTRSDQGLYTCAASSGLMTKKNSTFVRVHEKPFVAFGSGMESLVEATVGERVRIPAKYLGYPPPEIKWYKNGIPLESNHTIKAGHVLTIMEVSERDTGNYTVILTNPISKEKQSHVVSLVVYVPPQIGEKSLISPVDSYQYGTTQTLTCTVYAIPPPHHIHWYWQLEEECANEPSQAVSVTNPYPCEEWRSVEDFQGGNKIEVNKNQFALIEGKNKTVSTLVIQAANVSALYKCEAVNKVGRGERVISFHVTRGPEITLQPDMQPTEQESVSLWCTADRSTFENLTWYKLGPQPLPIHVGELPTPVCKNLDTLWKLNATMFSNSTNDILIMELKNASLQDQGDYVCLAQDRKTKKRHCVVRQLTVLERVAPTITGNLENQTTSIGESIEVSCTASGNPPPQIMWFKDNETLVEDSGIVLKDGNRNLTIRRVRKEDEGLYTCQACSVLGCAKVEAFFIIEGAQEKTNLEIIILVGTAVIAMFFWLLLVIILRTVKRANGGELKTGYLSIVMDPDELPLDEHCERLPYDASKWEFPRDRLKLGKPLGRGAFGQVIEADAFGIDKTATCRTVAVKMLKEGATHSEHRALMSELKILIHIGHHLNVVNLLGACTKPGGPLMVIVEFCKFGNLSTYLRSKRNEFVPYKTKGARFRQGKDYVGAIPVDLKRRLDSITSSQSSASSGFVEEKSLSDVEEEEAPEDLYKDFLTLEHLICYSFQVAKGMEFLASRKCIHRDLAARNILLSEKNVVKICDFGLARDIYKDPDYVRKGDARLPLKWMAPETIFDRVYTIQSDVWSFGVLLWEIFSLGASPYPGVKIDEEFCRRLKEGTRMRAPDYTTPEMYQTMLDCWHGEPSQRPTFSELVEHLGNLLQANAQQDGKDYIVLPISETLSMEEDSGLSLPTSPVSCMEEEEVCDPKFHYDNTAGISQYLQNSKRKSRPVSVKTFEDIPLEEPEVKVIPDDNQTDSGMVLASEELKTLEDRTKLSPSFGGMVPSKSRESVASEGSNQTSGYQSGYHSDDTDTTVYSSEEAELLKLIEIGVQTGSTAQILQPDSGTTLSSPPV

| SMILES | IC50 [1] [nM] | IC50 [2] [nM] | IC50 [3] [nM] |
| --- | --- | --- | --- |
| COc1cc2ncnc(Nc3ccc(NC(=O)Nc4cccc(S(C)(=O)=O)c4)c(Cl)c3)c2c2c1OCCO2 [Example 17, 1-(2-chloro-4-((5-methoxy-2,3-dihydro-[1,4]dioxino[2,3-f]quinazolin-10-yl)amino)phenyl)-3-(3-methylsulfonylphenyl)urea] | < 50 | > 1000 | > 1000 |
| COc1cc2ncnc(Oc3ccc(NC(=O)Nc4ccc(Cl)c(C(F)(F)F)c4)c(F)c3)c2c2c1OCCO2 [Example 19, 1-(4-chloro-3-(trifluoromethyl)phenyl)-3-(2-fluoro-4-((5-methoxy-2,3-dihydro-[1,4]dioxino[2,3-f]quinazolin-10-yl)oxy)phenyl)urea] | < 50 | < 200 | < 200 |
| COCCOc1cc2ncnc(Nc3ccc(NC(=O)Nc4ccc(Cl)c(C(F)(F)F)c4)c(Cl)c3)c2c2c1OCCO2 [Example 42, 1-(2-chloro-4-((5-(2-methoxyethoxy)-2,3-dihydro-[1,4]dioxino[2,3-f]quinazolin-10-yl)amino)phenyl)-3-(4-chloro-3-(trifluoromethyl)phenyl)urea] | < 50 | 500 to 1000 | < 200 |
| COCCOc1cc2ncnc(Oc3ccc(NC(=O)NC4CC4)c(Cl)c3)c2c2c1OCCO2 [Example 45, 1-(2-chloro-4-((5-(2-methoxyethoxy)-2,3-dihydro-[1,4]dioxino[2,3-f]quinazolin-10-yl)oxy)phenyl)-3-cyclopropylurea] | < 50 | > 1000 | > 1000 |
| COCCOc1cc2ncnc(Oc3ccc(NC(=O)Nc4ccc(F)cc4F)c(F)c3)c2c2c1OCCO2 [Example 49, 1-(2,4-difluorophenyl)-3-(2-fluoro-4-((5-(2-methoxyethoxy)-2,3-dihydro-[1,4]dioxino[2,3-f]quinazolin-10-yl)oxy)phenyl)urea] | < 50 | > 1000 | > 1000 |
| COCCOc1cc2ncnc(Oc3ccc(NC(=O)Nc4cccc(OC)c4)cc3)c2c2c1OCCO2 [Example 50, 1-(4-((5-(2-methoxyethoxy)-2,3-dihydro-[1,4]dioxino[2,3-f]quinazolin-10-yl)oxy)phenyl)-3-(3-methoxyphenyl)urea] | < 50 | > 1000 | > 1000 |
| O=C(Nc1ccc(Oc2ncnc3cc(OCCCN4CCCC4)c4c(c23)OCCO4)cc1Cl)NC1CC1 [Example 62, 1-(2-chloro-4-((5-(3-(pyrrolidin-1-yl)propoxy)-2,3-dihydro-[1,4]dioxino[2,3-f]quinazolin-10-yl)oxy)phenyl)-3-cyclopropylurea] | < 50 | > 1000 | > 1000 |
| O=C(Nc1ccc(Oc2ncnc3cc(OCCCN4CCOCC4)c4c(c23)OCCO4)cc1Cl)NC1CC1 [Example 64] | < 50 | > 1000 | > 1000 |
| O=C(Nc1ccc(Oc2ncnc3cc(OCCCN4CCOCC4)c4c(c23)OCCO4)cc1)Nc1ccc(Cl)c(C(F)(F)F)c1 [Example 66, 1-(4-chloro-3-(trifluoromethyl)phenyl)-3-(4-((5-(3-morpholinopropoxy)-2,3-dihydro-[1,4]dioxino[2,3-f]quinazolin-10-yl)oxy)phenyl)urea] | < 50 | 200 to 500 | 200 to 500 |
| O=C(Nc1ccc(Oc2ncnc3cc(OCCCN4CCOCC4)c4c(c23)OCCO4)c(F)c1)Nc1cc(C(F)(F)F)ccc1F [Example 67, 1-(3-fluoro-4-((5-(3-morpholinopropoxy)-2,3-dihydro-[1,4]dioxino[2,3-f]quinazolin-10-yl)oxy)phenyl)-3-(2-fluoro-5-(trifluoromethyl)phenyl)urea] | < 50 | 500 to 1000 | 200 to 500 |
| O=C(Nc1ccc(Oc2ncnc3cc(OC4CCOC4)c4c(c23)OCCO4)cc1)Nc1cc(C(F)(F)F)ccc1F (stereo not drawn) [Example 80, 1-(2-fluoro-5-(trifluoromethyl)phenyl)-3-(4-((5-((tetrahydrofuran-3-yl)oxy)-2,3-dihydro-[1,4]dioxino[2,3-f]quinazolin-10-yl)oxy)phenyl)urea] | < 50 |  |  |
| O=C(Nc1ccc(Oc2ncnc3cc(OCCCN4CCS(=O)(=O)CC4)c4c(c23)OCCO4)cc1)Nc1cc(C(F)(F)F)ccc1F [Example 81, 1-(4-((5-(3-(1,1-dioxidothiomorpholino)propoxy)-2,3-dihydro-[1,4]dioxino[2,3-f]quinazolin-10-yl)oxy)phenyl)-3-(2-fluoro-5-(trifluoromethyl)phenyl)urea] | < 50 |  |  |
| CN(C)CCCOc1cc2ncnc(Nc3ccc(NC(=O)NC4CC4)c(Cl)c3)c2c2c1OCCO2 [Example 82, 1-(2-chloro-4-((5-(3-(dimethylamino)propoxy)-2,3-dihydro-[1,4]dioxino[2,3-f]quinazolin-10-yl)amino)phenyl)-3-cyclopropylurea] | < 50 |  |  |
| CN1CCN(CCOc2cc3ncnc(Nc4ccc(NC(=O)NC5CC5)c(Cl)c4)c3c3c2OCCO3)CC1 [Example 83, 1-(2-chloro-4-((5-(2-(1-methylpiperazin-4-yl)ethoxy)-2,3-dihydro-[1,4]dioxino[2,3-f]quinazolin-10-yl)amino)phenyl)-3-cyclopropylurea] | 50 to 500 |  |  |
| CSCCOc1cc2ncnc(Nc3ccc(NC(=O)NC4CC4)c(Cl)c3)c2c2c1OCCO2 [Example 84, 1-(2-chloro-4-((5-(2-methylthioethoxy)-2,3-dihydro-[1,4]dioxino[2,3-f]quinazolin-10-yl)amino)phenyl)-3-cyclopropylurea] | < 50 |  |  |
| CSCCOc1cc2ncnc(Oc3ccc(NC(=O)NC4CC4)c(Cl)c3)c2c2c1OCCO2 [Example 85, 1-(2-chloro-4-(((5-(2-methylthio)ethoxy)-2,3-dihydro-[1,4]dioxino[2,3-f]quinazolin-10-yl)oxy)phenyl)-3-cyclopropylurea] | 500 to 5000 |  |  |
| COCCCOc1cc2ncnc(Oc3ccc(NC(=O)NC4CC4)c(Cl)c3)c2c2c1OCCO2 [Example 86, 1-(2-chloro-4-(((5-(3-methoxy)propoxy)-2,3-dihydro-[1,4]dioxino[2,3-f]quinazolin-10-yl)oxy)phenyl)-3-cyclopropylurea] | < 50 |  |  |
| CN(C)CCOc1cc2ncnc(Nc3ccc(NC(=O)NC4CC4)c(Cl)c3)c2c2c1OCCO2 [Example 87] | 50 to 500 |  |  |
| COCCCCCCOc1cc2ncnc(Oc3ccc(NC(=O)NC4CC4)c(Cl)c3)c2c2c1OCCO2 [Example 88] | < 50 |  |  |
| O=C(Nc1ccc(Oc2ncnc3cc(OCCCN4CCOCC4)c4c(c23)OCCO4)cc1)Nc1cc(Cl)ccc1F [Example 89, 1-(2-fluoro-5-chlorophenyl)-3-(4-((5-(3-morpholinopropoxy)-2,3-dihydro-[1,4]dioxino[2,3-f]quinazolin-10-yl)oxy)phenyl)urea] | < 50 |  |  |
| COc1cc2nccc(Oc3ccc(NC(=O)Nc4ccc(Cl)c(C(F)(F)F)c4)cc3)c2c2c1OCCO2 [Example 90, 1-(4-chloro-3-(trifluoromethyl)phenyl)-3-(4-((5-methoxy-2,3-dihydro-[1,4]dioxino[2,3-f]quinolin-10-yl)oxy)phenyl)urea] | < 50 |  |  |
| COc1cc2nccc(Oc3ccc(NC(=O)Nc4ccc(Cl)c(C(F)(F)F)c4)cc3F)c2c2c1OCCO2 [Example 91, 1-(4-chloro-3-(trifluoromethyl)phenyl)-3-(3-fluoro-4-((5-methoxy-2,3-dihydro-[1,4]dioxino[2,3-f]quinoline-10-yl)oxy)phenyl)urea] | 50 to 500 |  |  |
| COc1cc2nccc(Oc3ccc(NC(=O)Nc4ccc(Cl)c(C(F)(F)F)c4)c(F)c3)c2c2c1OCCO2 [Example 92, 1-(4-chloro-3-(trifluoromethyl)phenyl)-3-(2-fluoro-4-((5-methoxy-2,3-dihydro-[1,4]dioxino[2,3-f]quinoline-10-yl)oxy)phenyl)urea] | 50 to 500 |  |  |
| COCCOc1cc2nccc(Oc3ccc(NC(=O)Nc4ccc(Cl)c(C(F)(F)F)c4)cc3)c2c2c1OCCO2 [Example 93, 1-(4-chloro-3-(trifluoromethyl)phenyl)-3-(4-((5-(2-methoxyethoxy)-2,3-dihydro-[1,4]dioxino[2,3-f]quinoline-10-yl)oxy)phenyl)urea] | 50 to 500 |  |  |
| COCCOc1cc2nccc(Oc3ccc(NC(=O)Nc4ccc(Cl)c(C(F)(F)F)c4)cc3F)c2c2c1OCCO2 [Example 94, 1-(4-chloro-3-(trifluoromethyl)phenyl)-3-(3-fluoro-4-((5-(2-methoxyethoxy)-2,3-dihydro-[1,4]dioxino[2,3-f]quinoline-10-yl)oxy)phenyl)urea] | 50 to 500 |  |  |
